This note sets out measurements from paper PMC10907298 (Nature chemical biology, 2023).

Test [1] concerns BMDM, mSTING Indel/Indel. As to the kind of experiment: IP10 induction in bone marrow-derived macrophages. The class given is cell-based, mouse. To be noted: 50μM, n=1.
The target in test [2] is human STING R95C (Homo sapiens, UniProt Q86WV6, R95C). The experiment in a line: ISRE reporter assay with STING co-transfection in HEK293T cells. Background: In a reporter assay the amount or activity of a reporter protein is the signal.
For test [3], the target named is human STING R95K (Homo sapiens, UniProt Q86WV6, R95K). The description is as above.

“Also recorded” adds a separate entry of the source.

Sequence of human STING R95C (Q86WV6 whole entry R95C): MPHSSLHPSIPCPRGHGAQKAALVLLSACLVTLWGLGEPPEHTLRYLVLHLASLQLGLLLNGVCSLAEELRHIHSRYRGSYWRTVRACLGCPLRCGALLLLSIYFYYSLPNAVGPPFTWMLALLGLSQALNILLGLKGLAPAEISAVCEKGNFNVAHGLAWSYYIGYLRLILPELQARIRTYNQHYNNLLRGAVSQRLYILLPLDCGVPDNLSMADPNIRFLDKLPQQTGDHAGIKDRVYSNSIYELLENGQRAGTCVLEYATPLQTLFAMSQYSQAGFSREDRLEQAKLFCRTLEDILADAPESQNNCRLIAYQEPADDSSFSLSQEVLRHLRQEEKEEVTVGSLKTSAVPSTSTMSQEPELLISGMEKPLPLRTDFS
Sequence of human STING R95K (Q86WV6 whole entry R95K): as the sequence (Q86WV6 whole entry R95C) above, with C95K counted along it

In the case of `COc1cc(C(=O)O)ccc1NCc1ccc(C2(C(C)(C)C)OCC(C)(C)CO2)cc1` [NVS-STG2], the IP10 in test [1] was 20 pg/mL. Also, the entries for the “STING activation in words” value in test [2] and in test [3] were “lost all activity; also recorded: essentially irresponsive” and “partially active”, respectively. The “ISRE reporter activity, mean” value is recorded as 0.9 in test [2] (Log[μM] 0.2); 0.8 in test [2] (Log[μM] 0.5); 1.1 in test [2] (Log[μM] 0.8); 1.9 in test [2] (Log[μM] 1.1); 2.1 in test [2] (Log[μM] 1.4); 0.8 in test [2] (Log[μM] -0.1). The “ISRE reporter activity, mean” value in test [2] (Log[μM] -0.4) came out at 0.8; in test [2] (Log[μM] -0.7), 0.8; in test [2] (Log[μM] -1), 0.7; in test [2] (Log[μM] -1.3) it was 0.7.
